What was measured:
D(1A) dopamine receptor = D(1A) dopamine receptor (Homo sapiens, UniProt P21728)
[1] = biological target: cGMP-inhibited 3',5'-cyclic phosphodiesterase 3A (Homo sapiens, UniProt Q14432); type: functional
Prothrombin = Prothrombin (Homo sapiens, UniProt P00734); type: functional
[2] = biological target: Prostaglandin G/H synthase 1 (Homo sapiens, UniProt P23219); type: functional
D(3) dopamine receptor = D(3) dopamine receptor (Homo sapiens, UniProt P35462)
[3] = biological target: T1, Amine oxidase [flavin-containing] A (Homo sapiens, UniProt P21397); type: functional
T1 sequence (P21397 whole entry): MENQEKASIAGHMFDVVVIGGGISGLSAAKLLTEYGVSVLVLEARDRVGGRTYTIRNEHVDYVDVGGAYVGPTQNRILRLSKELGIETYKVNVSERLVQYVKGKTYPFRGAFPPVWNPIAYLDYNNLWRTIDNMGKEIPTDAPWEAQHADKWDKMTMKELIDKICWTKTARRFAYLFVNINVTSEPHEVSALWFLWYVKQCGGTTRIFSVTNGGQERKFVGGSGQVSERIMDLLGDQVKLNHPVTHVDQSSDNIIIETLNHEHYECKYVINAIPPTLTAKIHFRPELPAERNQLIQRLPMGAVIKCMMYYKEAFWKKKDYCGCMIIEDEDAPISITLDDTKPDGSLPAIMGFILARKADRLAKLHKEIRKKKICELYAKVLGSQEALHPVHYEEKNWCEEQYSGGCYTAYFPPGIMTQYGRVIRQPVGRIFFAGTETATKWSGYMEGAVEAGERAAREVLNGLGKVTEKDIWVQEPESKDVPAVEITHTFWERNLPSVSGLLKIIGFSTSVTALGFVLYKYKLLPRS

Cannabinoid receptor 1 = Cannabinoid receptor 1 (Homo sapiens, UniProt P21554); type: functional, cell-based
[4] = biological target: Gamma-aminobutyric acid receptor subunit alpha-1 (Rattus norvegicus, UniProt P62813)
[5] = biological target: T2, Alpha-1A adrenergic receptor (Homo sapiens, UniProt P35348); type: functional, cell-based
T2 sequence (P35348 whole entry): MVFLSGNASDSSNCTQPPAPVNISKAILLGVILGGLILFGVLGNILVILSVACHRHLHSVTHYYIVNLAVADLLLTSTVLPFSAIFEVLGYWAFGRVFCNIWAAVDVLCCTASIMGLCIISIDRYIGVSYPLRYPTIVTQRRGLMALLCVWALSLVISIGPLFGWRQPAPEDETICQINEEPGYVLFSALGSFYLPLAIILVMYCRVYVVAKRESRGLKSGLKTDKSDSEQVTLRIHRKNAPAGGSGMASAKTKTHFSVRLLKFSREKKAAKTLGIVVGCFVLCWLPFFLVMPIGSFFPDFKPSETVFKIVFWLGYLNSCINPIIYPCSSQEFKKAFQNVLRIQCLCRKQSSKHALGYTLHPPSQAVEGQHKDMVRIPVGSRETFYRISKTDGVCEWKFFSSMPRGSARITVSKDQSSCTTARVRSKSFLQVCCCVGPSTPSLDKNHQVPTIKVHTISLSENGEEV

[6] = biological target: T3, Muscarinic acetylcholine receptor M2 (Homo sapiens, UniProt P08172); type: functional, cell-based
T3 sequence (P08172 whole entry): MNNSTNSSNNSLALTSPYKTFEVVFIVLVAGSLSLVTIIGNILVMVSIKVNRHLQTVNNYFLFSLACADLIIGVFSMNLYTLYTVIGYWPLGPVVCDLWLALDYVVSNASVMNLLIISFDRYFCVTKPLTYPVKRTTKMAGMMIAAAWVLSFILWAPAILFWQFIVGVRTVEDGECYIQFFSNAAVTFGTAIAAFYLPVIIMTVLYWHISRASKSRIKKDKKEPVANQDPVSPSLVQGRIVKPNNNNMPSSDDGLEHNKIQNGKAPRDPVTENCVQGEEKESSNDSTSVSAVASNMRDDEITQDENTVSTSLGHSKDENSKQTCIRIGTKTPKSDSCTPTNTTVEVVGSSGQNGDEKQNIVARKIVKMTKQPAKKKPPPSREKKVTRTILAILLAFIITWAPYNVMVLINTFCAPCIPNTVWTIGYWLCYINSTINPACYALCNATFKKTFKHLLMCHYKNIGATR

B2 bradykinin receptor = biological target: T4, B2 bradykinin receptor (Homo sapiens, UniProt P30411)
T4 sequence (P30411 whole entry): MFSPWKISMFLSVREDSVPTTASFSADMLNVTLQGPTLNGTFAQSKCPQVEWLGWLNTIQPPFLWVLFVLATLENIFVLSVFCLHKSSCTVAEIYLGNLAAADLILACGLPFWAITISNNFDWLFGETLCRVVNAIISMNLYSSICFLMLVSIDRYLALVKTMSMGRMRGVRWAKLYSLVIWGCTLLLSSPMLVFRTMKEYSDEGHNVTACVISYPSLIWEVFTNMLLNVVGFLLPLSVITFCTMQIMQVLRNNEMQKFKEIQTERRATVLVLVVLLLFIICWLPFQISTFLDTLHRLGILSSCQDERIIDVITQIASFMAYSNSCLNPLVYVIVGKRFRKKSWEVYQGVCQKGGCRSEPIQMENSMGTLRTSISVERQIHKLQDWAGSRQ

[7] = biological target: T5, Neuropeptide Y receptor type 1 (Homo sapiens, UniProt P25929)
T5 sequence (P25929 whole entry): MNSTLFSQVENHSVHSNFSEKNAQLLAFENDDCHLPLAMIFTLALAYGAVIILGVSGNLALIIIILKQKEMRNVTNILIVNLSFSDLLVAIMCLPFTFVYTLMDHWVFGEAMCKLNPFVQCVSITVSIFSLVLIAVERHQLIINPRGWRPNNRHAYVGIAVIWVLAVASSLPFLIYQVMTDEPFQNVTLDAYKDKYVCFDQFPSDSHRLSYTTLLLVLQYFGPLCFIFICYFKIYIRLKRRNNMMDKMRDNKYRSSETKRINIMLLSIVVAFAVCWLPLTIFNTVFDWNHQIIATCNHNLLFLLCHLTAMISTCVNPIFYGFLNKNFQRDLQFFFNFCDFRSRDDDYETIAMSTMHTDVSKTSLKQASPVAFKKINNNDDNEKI
Note: assay procedure not described here.

Chain of Prostaglandin G/H synthase 1 (P23219 whole entry): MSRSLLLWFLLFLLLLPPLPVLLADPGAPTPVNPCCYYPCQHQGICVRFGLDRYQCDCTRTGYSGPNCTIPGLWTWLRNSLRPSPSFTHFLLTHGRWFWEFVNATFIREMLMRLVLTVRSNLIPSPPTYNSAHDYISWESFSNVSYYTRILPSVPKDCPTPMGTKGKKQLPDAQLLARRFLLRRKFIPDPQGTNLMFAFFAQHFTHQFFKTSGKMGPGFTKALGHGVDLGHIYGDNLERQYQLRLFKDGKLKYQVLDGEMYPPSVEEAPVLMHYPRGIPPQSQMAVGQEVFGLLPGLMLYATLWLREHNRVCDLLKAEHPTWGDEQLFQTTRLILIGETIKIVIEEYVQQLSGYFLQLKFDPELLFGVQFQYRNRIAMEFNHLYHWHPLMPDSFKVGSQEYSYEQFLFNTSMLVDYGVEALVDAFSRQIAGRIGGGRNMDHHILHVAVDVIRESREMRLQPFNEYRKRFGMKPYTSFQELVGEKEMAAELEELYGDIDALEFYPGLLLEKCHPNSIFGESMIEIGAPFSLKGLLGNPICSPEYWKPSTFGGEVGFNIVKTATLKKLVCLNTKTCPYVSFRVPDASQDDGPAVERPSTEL
Chain of D(1A) dopamine receptor (P21728 whole entry): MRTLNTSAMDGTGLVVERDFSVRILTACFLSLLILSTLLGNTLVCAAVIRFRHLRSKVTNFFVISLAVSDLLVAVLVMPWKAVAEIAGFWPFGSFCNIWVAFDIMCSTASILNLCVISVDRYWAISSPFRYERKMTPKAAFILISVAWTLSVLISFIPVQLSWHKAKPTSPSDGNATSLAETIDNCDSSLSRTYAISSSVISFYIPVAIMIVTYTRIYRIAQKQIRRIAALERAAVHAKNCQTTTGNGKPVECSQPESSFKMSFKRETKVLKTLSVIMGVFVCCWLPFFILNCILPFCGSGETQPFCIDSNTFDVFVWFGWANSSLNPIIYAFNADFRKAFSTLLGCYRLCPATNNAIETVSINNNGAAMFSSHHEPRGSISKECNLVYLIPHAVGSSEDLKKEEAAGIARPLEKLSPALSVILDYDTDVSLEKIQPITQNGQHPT
Chain of D(3) dopamine receptor (P35462 whole entry): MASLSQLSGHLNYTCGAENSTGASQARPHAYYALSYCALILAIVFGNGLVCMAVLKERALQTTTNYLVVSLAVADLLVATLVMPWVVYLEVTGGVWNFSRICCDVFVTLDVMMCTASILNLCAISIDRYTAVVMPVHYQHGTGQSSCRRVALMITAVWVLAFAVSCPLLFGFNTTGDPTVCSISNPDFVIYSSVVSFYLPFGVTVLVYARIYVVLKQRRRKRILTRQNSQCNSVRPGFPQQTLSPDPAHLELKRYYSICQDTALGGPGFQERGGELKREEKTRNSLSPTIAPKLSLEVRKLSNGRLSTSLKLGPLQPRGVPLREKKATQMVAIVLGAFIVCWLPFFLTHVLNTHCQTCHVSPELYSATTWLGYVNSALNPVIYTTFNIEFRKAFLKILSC
Chain of Cannabinoid receptor 1 (P21554 whole entry): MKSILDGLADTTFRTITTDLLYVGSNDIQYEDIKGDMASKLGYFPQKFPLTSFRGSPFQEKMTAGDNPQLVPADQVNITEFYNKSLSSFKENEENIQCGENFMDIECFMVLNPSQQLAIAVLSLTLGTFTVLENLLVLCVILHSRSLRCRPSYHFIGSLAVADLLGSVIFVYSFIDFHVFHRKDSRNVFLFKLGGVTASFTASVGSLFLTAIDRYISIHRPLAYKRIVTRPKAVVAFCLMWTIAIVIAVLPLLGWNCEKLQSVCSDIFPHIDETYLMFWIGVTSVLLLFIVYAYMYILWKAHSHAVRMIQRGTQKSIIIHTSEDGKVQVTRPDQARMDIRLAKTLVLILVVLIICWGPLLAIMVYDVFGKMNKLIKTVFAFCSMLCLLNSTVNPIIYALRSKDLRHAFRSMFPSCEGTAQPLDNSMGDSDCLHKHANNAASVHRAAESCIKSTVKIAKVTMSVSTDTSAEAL
Chain of cGMP-inhibited 3',5'-cyclic phosphodiesterase 3A (Q14432 whole entry): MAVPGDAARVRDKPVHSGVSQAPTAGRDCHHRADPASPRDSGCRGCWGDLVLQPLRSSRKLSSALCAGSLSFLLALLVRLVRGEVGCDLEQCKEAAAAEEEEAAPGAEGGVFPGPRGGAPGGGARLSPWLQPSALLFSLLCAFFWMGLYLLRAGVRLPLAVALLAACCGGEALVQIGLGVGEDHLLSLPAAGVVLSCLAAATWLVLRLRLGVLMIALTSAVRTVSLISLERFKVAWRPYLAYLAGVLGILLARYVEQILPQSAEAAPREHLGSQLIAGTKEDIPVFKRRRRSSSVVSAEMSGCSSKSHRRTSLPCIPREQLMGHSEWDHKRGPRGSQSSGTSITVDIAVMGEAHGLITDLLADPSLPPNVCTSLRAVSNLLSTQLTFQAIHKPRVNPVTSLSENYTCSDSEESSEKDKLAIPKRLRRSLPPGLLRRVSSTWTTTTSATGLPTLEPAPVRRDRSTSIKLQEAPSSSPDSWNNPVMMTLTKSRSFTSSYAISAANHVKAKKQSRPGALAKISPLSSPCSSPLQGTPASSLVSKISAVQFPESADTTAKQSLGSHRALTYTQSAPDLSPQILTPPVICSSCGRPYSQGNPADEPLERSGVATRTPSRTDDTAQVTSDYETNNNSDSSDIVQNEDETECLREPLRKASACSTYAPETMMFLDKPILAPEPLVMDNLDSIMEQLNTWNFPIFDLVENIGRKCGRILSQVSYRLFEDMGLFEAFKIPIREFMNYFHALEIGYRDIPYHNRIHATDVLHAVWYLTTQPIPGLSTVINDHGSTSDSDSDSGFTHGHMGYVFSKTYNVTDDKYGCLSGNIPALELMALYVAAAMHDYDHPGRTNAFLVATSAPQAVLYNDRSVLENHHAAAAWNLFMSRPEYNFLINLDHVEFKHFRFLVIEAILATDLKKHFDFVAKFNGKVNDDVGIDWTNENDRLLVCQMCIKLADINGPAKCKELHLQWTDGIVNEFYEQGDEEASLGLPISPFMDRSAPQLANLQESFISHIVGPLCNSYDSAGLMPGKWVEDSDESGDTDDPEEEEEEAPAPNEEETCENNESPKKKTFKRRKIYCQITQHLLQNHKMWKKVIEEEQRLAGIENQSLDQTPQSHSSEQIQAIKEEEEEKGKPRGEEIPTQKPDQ
Chain of Gamma-aminobutyric acid receptor subunit alpha-1 (P62813 whole entry): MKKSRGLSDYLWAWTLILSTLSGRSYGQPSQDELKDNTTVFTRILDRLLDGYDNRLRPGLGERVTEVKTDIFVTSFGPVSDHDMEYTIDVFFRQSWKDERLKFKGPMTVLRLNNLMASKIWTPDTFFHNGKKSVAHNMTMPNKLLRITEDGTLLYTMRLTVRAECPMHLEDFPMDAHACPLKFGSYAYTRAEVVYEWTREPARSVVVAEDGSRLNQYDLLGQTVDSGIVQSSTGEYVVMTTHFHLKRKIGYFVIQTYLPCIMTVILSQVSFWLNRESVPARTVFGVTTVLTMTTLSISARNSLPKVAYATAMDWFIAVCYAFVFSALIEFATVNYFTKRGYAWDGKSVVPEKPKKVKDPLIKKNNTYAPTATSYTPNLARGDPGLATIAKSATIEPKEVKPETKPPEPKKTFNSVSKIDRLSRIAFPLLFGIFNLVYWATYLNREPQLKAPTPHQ

Row | Structure (SMILES) | AC50 (D(1A) dopamine receptor) [µM] | AC50 [1] [µM] | AC50 (Prothrombin) [µM] | AC50 [2] [µM] | AC50 (D(3) dopamine receptor) [µM] | AC50 [3] [µM] | AC50 (Cannabinoid receptor 1) [µM] | AC50 [4] [µM] | AC50 [5] [µM] | AC50 [6] [µM] | AC50 (B2 bradykinin receptor) [µM] | AC50 [7] [µM]
1 | Cc1cc2c(cc1CC(=O)c1sccc1S(=O)(=O)Nc1onc(C)c1Cl)OCO2 [SITAXENTAN] | > 30 | > 30 | > 30 | > 30 | > 30 | > 30 | – | – | – | – | – | –
2 | Cc1cc(O)cc(C)c1Cl [CHLOROXYLENOL] | > 30 | > 30 | > 30 | > 30 | > 30 | > 30 | – | – | – | – | – | –
3 | CC(=O)OCC(=O)[C@@]1(O)CC[C@H]2[C@@H]3CCC4=CC(=O)CC[C@]4(C)[C@H]3C(=O)C[C@@]21C [CORTISONE ACETATE] | – | – | > 30 | – | – | – | > 30 | > 30 | – | – | – | –
4 | C#C[C@]1(O)CC[C@H]2[C@@H]3CCC4=CC(=O)CC[C@@H]4[C@H]3CC[C@@]21CC [LEVONORGESTREL] | > 30 | > 30 | > 30 | > 30 | > 30 | > 30 | – | – | > 30 | – | – | –
5 | C(=N\NC1=NCCN1)/c1c2ccccc2c(/C=N/NC2=NCCN2)c2ccccc12 [BISANTRENE] | 5.24 | > 30 | > 30 | > 30 | 5.96 | > 30 | – | – | > 30 | – | – | –
6 | O=C1c2c(O)c(=O)ccn2N([C@@H]2c3ccccc3SCc3c2ccc(F)c3F)[C@@H]2COCCN12 [BALOXAVIR] | > 30 | > 30 | > 30 | > 30 | > 30 | > 30 | – | – | > 30 | – | – | –
7 | C[N+]1(C)[C@@H]2C[C@@H](OC(=O)[C@H](CO)c3ccccc3)C[C@H]1[C@@H]1O[C@@H]12 [METHSCOPOLAMINE] | > 30 | > 30 | > 30 | > 30 | > 30 | > 30 | – | – | > 30 | – | – | –
8 | CC1(C)O[C@@H]2C[C@H]3[C@@H]4C[C@H](F)C5=CC(=O)CC[C@]5(C)[C@H]4[C@@H](O)C[C@]3(C)[C@]2(C(=O)CO)O1 [FLURANDRENOLIDE] | > 30 | > 30 | > 30 | > 30 | > 30 | > 30 | – | – | > 30 | – | – | –
9 | O=C(COc1ccc(Cl)cc1)N1CCN(Cc2ccc3c(c2)OCO3)CC1 [FIPEXIDE] | > 30 | > 30 | > 30 | > 30 | 27.1 | > 30 | – | – | > 30 | – | – | –
10 | O=C1c2ccccc2C(=O)C1C(=O)C(c1ccccc1)c1ccccc1 [DIPHENADIONE] | > 30 | > 30 | > 30 | 20.4 | > 30 | > 30 | – | – | 4.95 | – | – | –
11 | C[N+](C)(C)CCCCCCCCCC[N+](C)(C)C [DECAMETHONIUM] | > 30 | > 30 | > 30 | > 30 | > 30 | > 30 | – | – | > 30 | – | – | –
12 | CC(=O)Oc1c(C)cc(OCC(O)CNC(C)C)c(C)c1C (stereo not given) [METIPRANOLOL] | > 30 | > 30 | > 30 | > 30 | > 30 | > 30 | – | – | > 30 | – | – | –
13 | CC(N/C(=N\C#N)Nc1ccncc1)C(C)(C)C (stereo not given) [PINACIDIL ANHYDROUS] | > 30 | > 30 | > 30 | > 30 | > 30 | > 30 | – | – | > 30 | – | – | –
14 | O=C1CC[C@@]2(O)[C@H]3Cc4ccc(O)c5c4[C@@]2(CCN3CC2CC2)[C@H]1O5 [NALTREXONE] | > 30 | > 30 | > 30 | > 30 | > 30 | > 30 | – | – | > 30 | – | – | –
15 | CCC(=O)c1c(O)cc(O)cc1O [FLOPROPIONE] | > 30 | > 30 | > 30 | > 30 | 12.1 | > 30 | – | – | > 30 | – | – | –
16 | O=C1[C@H](CC[C@H](O)c2ccc(F)cc2)[C@@H](c2ccc(O)cc2)N1c1ccc(F)cc1 [EZETIMIBE] | 29.4 | > 30 | > 30 | 6.72 | > 30 | > 30 | – | – | 9.94 | – | – | –
17 | CCC(=O)O[C@H]1[C@H](O[C@@H]2[C@@H](C)[C@H](O[C@H]3C[C@@](C)(OC)[C@@H](O)[C@H](C)O3)[C@@H](C)C(=O)O[C@H](CC)[C@@](C)(O)[C@H](O)[C@@H](C)C(=O)[C@H](C)C[C@@]2(C)O)O[C@H](C)C[C@@H]1N(C)C [ERYTHROMYCIN PROPIONATE] | > 30 | > 30 | > 30 | > 10 | 12.9 | > 30 | – | – | – | – | – | –
18 | CC(C)NNC(=O)c1ccncc1 [IPRONIAZID] | – | – | – | – | – | – | > 30 | – | – | > 30 | – | –
19 | CCOC(=O)c1ccc(O)cc1 [ETHYLPARABEN] | > 30 | > 30 | > 30 | > 30 | > 30 | > 30 | – | – | > 30 | – | – | –
20 | Cc1c(-c2ccccc2)oc2c(C(=O)OCCN3CCCCC3)cccc2c1=O [FLAVOXATE] | > 30 | > 30 | > 30 | > 30 | 0.88 | > 30 | – | – | > 30 | – | – | –
21 | Sc1ncnc2nc[nH]c12 [MERCAPTOPURINE ANHYDROUS] | > 30 | > 30 | > 30 | 14.6 | > 30 | > 30 | – | – | > 30 | – | – | –
22 | Cc1cccc(C)c1OCC(C)N (stereo not given) [MEXILETINE] | – | – | – | – | – | – | > 30 | – | – | > 30 | > 30 | > 30
23 | CN1CCCC(CN2c3ccccc3Sc3ccccc32)C1 (stereo not given) [MEPAZINE] | 9.78 | > 30 | > 30 | > 30 | – | > 30 | – | – | > 30 | – | – | –
